According to US20070093469A1, “Substituted azetidine compounds as cyclooxygenase-1-cyclooxygenase-2 inhibitors, and their preparation and use as medicaments” (LABORATORIOS DEL DR. ESTEVE S.A, priority 2004, published 2007):

What was measured:
Cox-1 enzyme = biological target: T1, Cox-1 enzyme (Ovis aries, UniProt P05979); assay: Cox-1/Cox-2 enzyme assay (Cox-1); assay type: biochemical; conditions: for IC50: enzyme assay
T1 construct: purchased Cayman Chemical 60100
T1 sequence (P05979 25-600): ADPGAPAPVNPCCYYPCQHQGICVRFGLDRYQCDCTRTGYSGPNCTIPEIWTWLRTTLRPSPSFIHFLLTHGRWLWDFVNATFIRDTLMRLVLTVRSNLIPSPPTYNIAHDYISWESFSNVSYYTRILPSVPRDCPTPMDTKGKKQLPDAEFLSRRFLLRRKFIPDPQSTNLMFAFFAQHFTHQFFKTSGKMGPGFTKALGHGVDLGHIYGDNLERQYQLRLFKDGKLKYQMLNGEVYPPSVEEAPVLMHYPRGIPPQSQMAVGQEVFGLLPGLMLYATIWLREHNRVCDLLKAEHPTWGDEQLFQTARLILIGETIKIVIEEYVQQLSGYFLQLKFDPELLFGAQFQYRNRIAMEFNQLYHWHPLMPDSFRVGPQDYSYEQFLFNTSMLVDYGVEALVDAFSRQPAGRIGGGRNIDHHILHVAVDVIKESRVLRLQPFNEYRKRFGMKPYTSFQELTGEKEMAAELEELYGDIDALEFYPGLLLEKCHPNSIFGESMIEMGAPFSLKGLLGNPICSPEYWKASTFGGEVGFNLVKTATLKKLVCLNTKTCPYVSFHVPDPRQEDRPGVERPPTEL
Description: I. Cox-1/Cox-2 Enzyme Assay:
The Cox-1/Cox-2 enzyme assay for the inventive azetidine compounds is carried out according to the following description:
Immediately after the addition of the substrate, the slope corresponding to the optical density increase at 480 nm is recorded for 1 minute. The reaction is monitored with a Hewlett-Packard 8452A spectrophotometer.

Cox-2 = biological target: T2, Cox-2 (Homo sapiens, UniProt P35354); assay: Cox-2 activity in human whole blood (LPS, PGE2); assay type: cell-based; conditions: read-out: hWB inhibition COX-2 IC50
T2 construct: 0.5 ml of fresh human blood; from tissue; host or cells: fresh human whole blood stimulated with E. coli 0111:B4 LPS
T2 sequence (P35354 18-604): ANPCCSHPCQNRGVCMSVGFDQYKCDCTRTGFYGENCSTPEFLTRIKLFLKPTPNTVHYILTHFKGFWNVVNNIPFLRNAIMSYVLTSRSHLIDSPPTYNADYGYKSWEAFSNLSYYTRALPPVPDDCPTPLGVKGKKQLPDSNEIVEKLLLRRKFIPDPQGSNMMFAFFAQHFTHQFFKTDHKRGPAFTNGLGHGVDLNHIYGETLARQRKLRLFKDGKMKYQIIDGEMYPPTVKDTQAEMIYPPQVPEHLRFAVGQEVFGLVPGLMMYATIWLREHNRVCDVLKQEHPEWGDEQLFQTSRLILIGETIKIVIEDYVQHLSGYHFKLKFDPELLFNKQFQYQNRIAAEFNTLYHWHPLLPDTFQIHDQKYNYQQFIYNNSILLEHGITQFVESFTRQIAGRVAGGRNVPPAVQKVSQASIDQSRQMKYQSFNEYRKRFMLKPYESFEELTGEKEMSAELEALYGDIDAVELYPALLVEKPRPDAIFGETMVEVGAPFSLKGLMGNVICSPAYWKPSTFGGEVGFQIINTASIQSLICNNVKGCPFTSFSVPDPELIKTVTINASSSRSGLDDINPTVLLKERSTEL
Description: II. Determination of Cox-1- and Cox-2-Activity in Human Whole Blood
The Cox-1- and Cox-2-activity in human whole blood is determined according to a modification of the method described in the publication of C. Brideau et al., “A human whole blood assay for clinical evaluation of biochemical efficacy of cyclooxygenase inhibitors”, Inflamm Res 1996; 45: 68-74. The respective part of the description is hereby incorporated by reference and forms part of the present disclosure.
For Cox-2 activity determination, tubes are prepared with 2 μl of the compound to be tested or DMSO, 12 μg/ml of aspirine, 9 μl of 1% (weight/volume) sodium heparine and 0.5 ml of fresh human blood. Samples are pre-incubated at 37° C. during 15 minutes and E. coli 0111:B4 LPS (from Sigma Chemical, St. Louis, Mo. U.S.A., catalogue number L-3012) are added for incubation during 24 h at 37° C. The samples are centrifuged for 100 μl of plasma collection. 400 μl of Ethyl acetate and 1% (volume/volume) methanol are added to each sample and the tubes are stirred and centrifuged for 10 minutes at 5000 g at 4° C. 300μl of supernatant are aspirated and evaporated under nitrogen atmosphere. Prostaglandin E2 concentration is quantified using an assay kit from Cayman Chemical, Ann-Arbor, Mich., U.S.A. (Catalogue number: 514010 ) after reconstitution into 300 μl assay buffer supplied in the assay kit.

[1] = test system: PGE2 production in rat inflammatory exudate; assay: PGE2 production in rat inflammatory exudate; assay type: in vivo; conditions: rats, oral route, carrageenan sponge implant, read-out: PGE2 Inflam. exudade ED50
Description: VI: PGE2 Production in Rat Inflammatory Exudate and Gastric Mucosa
The PGE2 production in rat inflammatory exudate and gastric mucosa is carried out as described in the publication of O Tofanetti et al., “Effect of nimesulide on cyclo-oxygenase activity in rat gastric mucosa and inflammatory exudate”, Med Sci Res 17, 745-746 (1989). The respective part of the description is hereby incorporated by reference and forms part of the present disclosure.
For this text 6 male wistar rats (Interfauna-St Feliú de Codines, Barcelona) of approximately 200 g (each approximately 6 weeks of age) are used. The compounds to be tested are administered via oral route in gum Arabic at 5% (weight/volume) at a rate of 10 ml/kg.
One hour after administration of the compounds and under halothane anaesthesia, each rat is implanted subcutaneously in the interescapular area a 40×15×5 mm polyester sponge, soaked in a 0.5% suspension of carrageenan. Rats are sacrificed 6 hours after the implant, the sponges are removed and squeezed. The exudates are collected and centrifuged at 6000×G for 15 minutes.
The rats's stomachs are removed and the gastric mucosa is detached from the underlying layers and by means of a 10 mm diameter die, mucosa samples from an area between the gastric corpus and pyloric antrum are taken. The mucosal PGE2 is extracted. PGE2 concentrations from the inflammatory exudates and the gastric mucosa are determined by means of inmmunoassay reagents of Cayman Chemical kit, Ann Arbor, Mich., U.S.A. (Catalogue number: 514010) according to the manufacturer's instructions.

Compound | inhibition at 50 µM (Cox-1 enzyme; read-out: % inhibition 5 × 10^−5 M COX-1) | IC50 (Cox-2) | ED50 [1] | IC50 (Cox-1 enzyme)
CC(C)(C)c1cc(C(=O)N2CC(O)C2)cc(C(C)(C)C)c1 [Example 2, (3,5-di-tert-butyl-phenyly)-(3-hydroxy-azetidin-1-yl)-methanone] | 9% | 0.8 µM | 5.9 mg/kg | 
CC1C(O)CN1C(=O)c1cc(C(C)(C)C)c(O)c(C(C)(C)C)c1 (stereo not drawn) [Example 4, (3,5-di-tert-butyl-4-hydroxy-phenyl)-(3-hydroxy-2-methyl-azetidin-1-yl)-methanone] |  | 0.5 µM | 5.8 mg/kg | 246 µM
CC(C)(C)c1cc(C(=O)N2CC(O)C2)cc2c1OCC2(C)C [Example 14, (7-tert-butyl-3,3-dimethyl-2,3-dihydro-benzofuran-5-yl)-(3-hydroxy-azetidin-1-yl)-methanone] |  | 0.1 µM | 1.8 mg/kg | 48.3 µM
